Series [1] in a line: PK, 7-day intragastric dosing. Format: in vivo, rats. Particulars: for AUC0-t / AUC0-∞ / Cmax / Tmax / t1/2: 30.5 mg/kg (multiple dose). On the procedure:
After 7 consecutive days of continuous intragastric administration (30.5 mg/kg once a day) of ZG0128 in rats, the plasma concentration reached a steady state on day […]
values obtained after the single-dose administration, respectively. The Cmax and AUC0-t of the metabolite ZG0245 were 1.19 and 1.52 times the values obtained after the single-dose administration, respectively. […]
consecutive days of administration, there was no significant accumulation of ZG0163 and the metabolite ZG0245 in rats. The pharmacokinetic parameters obtained after […]
Table 12. Pharmacokinetic parameters of ZG0163 in rats given different doses of ZG0128 via oral gavage (n = 6, male:female=1:1).
Dosage Gender Tmax Cmax AUC0-t AUC0-∞ MRT t1/2

A short description of series [2]: Metabolic stability in liver microsomes. Format: in vitro ADME, rat. The procedure: The metabolic stability of ZG0128 (the dihydrochloride monohydrate of ZG0163) was evaluated using human, monkey, dog, rat, and mouse liver microsomes as the in vitro models. The percentages of residues for ZG0128 after incubating in human, monkey, dog, rat, and mouse liver microsomes for 60 minutes was 55.5%, 63.1%, 67.1%, 80.3%, and 79.0%, respectively. The CLint values of in vivo clearance were calculated to be 24.1, 21.6, 33.4, 10.7, 26.0 mL/min/kg, respectively. Thus its was speculated that ZG0128 was a medium clearance drug in humans, monkeys, and mice, a high clearance drug in dogs, and a low clearance drug in rats.
Using UPLC-UV/Q-TOF MS, the potential metabolites of ZG0128 in various liver microsomes (human, monkey, dog, rat and mouse liver microsomes) incubation systems were identified and the metabolic pathways of ZG0128 were speculated. The main metabolite of ZG0128 in above five types of liver microsomes were primary alcohol metabolite formed by morpholine ring-opening (M3). […]

The next series deals with test strains. The series can be described thus: Ames test. The note with it: 9.76–6100 μg/mL, with or without S9. An excerpt:
Suzhou Zelgen Biopharmaceuticals Co., Ltd. Jaktinib Hydrochloride Tablets
In general terms: The Ames test uses bacterial strains that need an amino acid and regain growth without it when mutated back.

In a further series the test system is JAK2 signaling pathway. The series can be described thus: JAK2 signaling in NSG mice injected with HCD-57-JAK2V617F cells. Format: in vivo. The note with it: single 200 mg/kg intraperitoneally, 4 h. The procedure: Suzhou Zelgen Biopharmaceuticals Co., Ltd. Jaktinib Hydrochloride Tablets Chemical Drug Class 1 New Drug […]
cells at a concentration of 1 μM. […]
effectively affect the primary cells harboring the JAK2V617F mutation in patients with […]
In Vivo Pharmacodynamic Study of ZG0128 in Mouse Model of Myeloproliferative Neoplasm
Primary myelofibrosis (PMF) is characterized by the formation of bone marrow fibrous tissues (scar-like) caused by the abnormal proliferation of three types of cells (platelets, white blood cells, and red blood cells). At present, there is still no particularly effective treatment for these diseases. JAKV617F transgenic mice and JAK2V617F bone marrow transplanted mice can develop the pathological characteristics of myeloproliferative neoplasm, which can be used to effectively evaluate the efficacy of drugs used in the treatment of myeloproliferative neoplasms.
HCD-57-JAK2V617F cells were intravenously injected into NSG mice. Three weeks later, the mice were injected intraperitoneally with a single dose of 200 mg/kg of compound ZG0128, and euthanized 4 h after drug administration. The results of […]
nucleated cells in spleen were HCD-57-JAK2V617F transplanted cells. Western blot […]
the phosphorylation of downstream major signaling proteins of JAK2, i.e., ERK1/2, […]
inhibit the JAK2 signaling pathway in vivo. […]

Series [3] can be described thus: Bone marrow micronucleus test. Format: in vivo, NIH mice. The note with it: 122, 244, 488 mg/kg oral gavage, 4 days. From the text: Suzhou Zelgen Biopharmaceuticals Co., Ltd. Jaktinib Hydrochloride Tablets Chemical Drug Class 1 New Drug chromosomal structural aberrations in CHL cells. Therefore, the results of the chromosomal aberration test were negative.
Mouse Bone Marrow Micronucleus Test
A mouse bone marrow micronucleus test of ZG0128 has been performed. After multiple doses of ZG0128 are given to mice via oral gavage, the incidence of micronucleated polychromatic erythrocytes in the bone marrow is observed to estimate the damage to chromosomal integrity in bone marrow cells and subsequent abnormality of chromosome segregation, so as to determine the presence of genotoxicity. The results […]
once a day for 4 consecutive days, neither damage to the chromosomal integrity in bone marrow cells nor abnormal chromosome segregation was observed. Therefore, the results of the micronucleus test were negative.
A Toxicity Test on Fertility and Early Embryo Development in Wistar Rats Administered ZG0128 by Oral Gavage
A toxicity test on the fertility and early embryo development in Wistar rats given ZG0128 by oral gavage was completed. In this test, female and male rats were given a continuous dose of ZG0128 prior to mating until embryo implantation to observe the toxicity or interference of ZG0128 on the fertility and early embryo development in […]
groups of 18, 36, and 72 mg/kg of ZG0128. […]

The nature of series [4]: General physicochemical properties. From the text: Suzhou Zelgen Biopharmaceuticals Co., Ltd. Jaktinib Hydrochloride Tablets Chemical Drug Class 1 New Drug
Table 5. General physicochemical properties of Jaktinib hydrochloride […]
Appearance Yellow to orange crystalline powder; Odorless; Bitter taste […]
methylpyrrolidone; soluble in N, N-dimethyl formamide; […]
acetonitrile, dioxane, tert-butyl methyl ether or water
Jaktinib dihydrochloride monohydrate is a crystalline solid
Crystal Form containing two molecules of hydrogen chloride and one molecule of water of crystallization, with its crystal form being polymorph

A word on the Cmax: it is the peak of the concentration-time curve. As for Jaktinib, in series [1] (Female), the AUC0-t was determined as 67600 ± 27600 ng·h/mL, the “AUC0-∞” value worked out at 67800 ± 27800 ng·h/mL, the highest concentration (Cmax) stood at 11000 ± 4220 ng/mL and the Tmax came to 1.0 h. This compound also showed a t1/2 in series [1] (Female) of 1.81 ± 1.55 h. Moreover, in series [1] (Male), the AUC0-t came to 35700 ± 13500 ng·h/mL, the “AUC0-∞” value was determined as 36000 ± 13800 ng·h/mL, the highest concentration (Cmax) worked out at 6340 ± 1230 ng/mL and the Tmax is recorded as 1.0 (1.0-2.0) h. The same compound returned a t1/2 in series [1] (Male) of 2.15 ± 0.62 h. Moreover, in series [1] (Overall), the AUC0-t was 51700 ± 26100 ng·h/mL, the “AUC0-∞” value worked out at 51900 ± 26200 ng·h/mL, the peak concentration (Cmax) was 8670 ± 3770 ng/mL and the Tmax is reported as 1.0 (1.0-6.0) h. The compound also came in with a t1/2 in series [1] (Overall) of 1.98 ± 1.07 h.

On to `Cl.Cl.O.[2H]C1([2H])COCC([2H])([2H])N1c1ccc(Nc2nccc(-c3ccc(C(=O)NCC#N)cc3)n2)cc1` [ZG0128, Jaktinib Dihydrochloride Monohydrate], for which the “CLint of in vivo clearance” value in series [2] is 10.7 mL/min/kg. The “percentage of residue after 60 minutes” value in series [2] was 80.3%. The Ames test result with test strains is “negative”. Moreover, the “phosphorylation of ERK1/2, Akt and STAT5 in splenocytes” value in the series with JAK2 signaling pathway was “significantly inhibited”. In addition, the micronucleus test result in series [3] is listed as “negative”. Further, the “day on which steady state was reached” value in series [1] (30.5 mg/kg once a day) was 5 days. Also, in series [4], the Hygroscopicity result is reported as “Slightly hygroscopic”. Further, the Solubility entry is “slightly soluble” in series [4] (0.1 mol/L hydrochloric acid); “freely soluble” in series [4] (dimethyl sulfoxide); “slightly soluble in ethanol” in series [4] (ethanol); “slightly soluble” in series [4] (methanol); “practically insoluble” in series [4] (water).
